# “And” between values parts separate entries of the source, which are not always exact repeats. Equal values may be shown once.
# Legend:
# velvetleaf = assay: Herbicidal effects against weeds (post emergence), velvetleaf; type: in vivo; details: post emergence spray, evaluated two weeks after treatment
# Protocol: (§1) Herbicidal Effects Against Weeds (Post Emergence)
# (§2) After filling 300 g field soil in jiffypot™ having diameter of 10 cm, the soil was steam sterilized. Seeds of velvetleaf, redroot pigweed, tall morningglory and corn onto the surface of the soil were scattered, and then covered with the soil to a thickness of 0.5 cm for the weed, 1 cm for the crop. When the weed and the crop reached the designated growth stage, they were treated with the compound to be tested.
# (§3) Preparation of the Test Solution and the Method of Treatment
# (§4) The compound to be tested was dissolved in acetone which contain Tween 20™ and diluted with deionized water to prepare the test solution for 10 g/a and 1 g/a use. The test solution was sprayed on the pots in a device for spraying using spraygun.
# (§5) Method of Indicating the Effect and Phytotoxicity
# (§6) The effect of the compound tested on the weeds and phytotoxicity on the crops were evaluated two weeks after treatment with the compound as 6 grades from 0 to 5 shown in the Table 9 and 10.
# (§7) In the Table 11 and 12, the herbicidal effects were indicated by the following evaluation index.
# tall morningglory = assay: Herbicidal effects against weeds (post emergence), tall morningglory; type: in vivo; details: post emergence spray, evaluated two weeks after treatment
# Protocol: as §1, §2, §3, §4, §5, §6, §7
# corn = assay: Post emergence test, phytotoxicity on the crop corn; type: in vivo; details: post emergence spray, evaluated two weeks after treatment
# Protocol: as §1, §2, §3, §4, §5, §6
# The phytotoxicity was indicated by the following evaluation index.
# redroot pigweed = assay: Herbicidal effects against weeds (post emergence), redroot pigweed; type: in vivo; details: post emergence spray, evaluated two weeks after treatment
# Protocol: as §1, §2, §3, §4, §5, §6, §7
SMILES,Evaluation index Velvet leaf (velvetleaf; 10 g/a),Evaluation index Tall morning glory (tall morningglory; 10 g/a),Evaluation index Corn (phytotoxicity) (corn; 1 g/a),Evaluation index Velvet leaf (velvetleaf; 1 g/a),Evaluation index Tall morning glory (tall morningglory; 1 g/a),melting point,Evaluation index Corn (phytotoxicity) (corn; 10 g/a),Evaluation index Redroot pigweed (redroot pigweed; 1 g/a),Evaluation index Redroot pigweed (redroot pigweed; 10 g/a)
CCOC(=O)COc1cc(-n2nc3ccc(Cl)cn3c2=O)c(F)cc1Cl [A-27],5 (maximum *all dead) 100),5 (maximum *all dead) 100),–,–,–,–,–,–,–
CCOC(=O)CSc1cc(-n2nc3ccc(Cl)cn3c2=O)c(F)cc1C#N [A-19],5 (maximum *all dead) 100),5 (maximum *all dead) 100),–,–,–,–,–,–,–
"CCS(=O)(=O)Nc1cc(-n2nc3ccc(Cl)cn3c2=O)c(F)cc1C#N [Compound No. A-3, 6-Chloro-2-(4-cyano-5-ethanesulfonylamino-2-fluorophenyl)-1,2,4-triazolo[4,3-a]pyridin-3(2H)-one]",–,–,1 (small 0.1 to 12.5),5 (maximum *all dead) 100),4 (maximum 87.6 to 99.9),220 to 222 °C,–,–,–
"C#CCOc1cc(-n2nc3n(c2=O)CCCN3)c(F)cc1Cl [Compound No. F-1, 5,6,7,8-Tetrahydro-2-(4-chloro-2-fluoro-5-propargyloxyphenyl)-[1,2,4]triazolo[4,3-a]pyrimidin-3(2H)-one]",5 (maximum *all dead) 100),–,3 (big 25.1 to 50.0),4 (maximum 87.6 to 99.9),–,172 to 174 °C,3 (big 25.1 to 50.0),5 (maximum *all dead) 100),5 (maximum *all dead) 100)
"CCS(=O)(=O)Nc1cc(-n2nc3ccc(Cl)cn3c2=O)c(F)cc1Cl [Compound No. A-35, 6-Chloro-2-(4-chloro-5-ethanesulfonylamino-2-fluorophenyl)-1,2,4-triazolo[4,3-a]pyridin-3(2H)-one]",5 (maximum *all dead) 100),–,–,–,–,121 to 123 °C and 120 to 122 °C,1 (small 0.1 to 12.5),–,5 (maximum *all dead) 100)
"Cc1cc2c(-n3nc4ccc(Cl)cn4c3=O)c(F)cc(Cl)c2o1 [A-62, 6-Chloro-2-(7-chloro-5-fluoro-2-methylbenzofuran-4-yl)-1,2,4-triazolo[4,3-a]pyridin-3(2H)-one]",5 (maximum *all dead) 100),–,1 (small 0.1 to 12.5),5 (maximum *all dead) 100),–,205 to 207 °C,1 (small 0.1 to 12.5),5 (maximum *all dead) 100),5 (maximum *all dead) 100)
"C#CCOc1cc(-n2nc3ccc(Cl)cn3c2=O)c(F)cc1Cl [Compound No. A-25, 6-Chloro-2-(4-chloro-2-fluoro-5-propargyloxyphenyl)-1,2,4-triazolo[4,3-a]pyridin-3(2H)-one]",5 (maximum *all dead) 100),5 (maximum *all dead) 100),0 (no effect 0),5 (maximum *all dead) 100),5 (maximum *all dead) 100),145 to 148 °C,1 (small 0.1 to 12.5),–,–
CCS(=O)(=O)Nc1cc(-n2nc3c(Cl)cccn3c2=O)c(F)cc1C#N [A-48],5 (maximum *all dead) 100),5 (maximum *all dead) 100),–,–,–,–,–,–,–
CCS(=O)(=O)Nc1cc(-n2nc3ccc(C)cn3c2=O)c(F)cc1C#N [A-50],5 (maximum *all dead) 100),5 (maximum *all dead) 100),–,–,–,–,–,–,–
"CCOC(=O)COC(=O)c1cc(-n2nc3ccc(Cl)cn3c2=O)c(F)cc1Cl [Compound No. A-34, Ethoxycarbonylmethyl 2-chloro-4-fluoro-5-(6-chloro-2,3-dihydro-3-oxo-1,2,4-triazolo[4,3-a]pyridin-2-yl)benzoate]",–,–,1 (small 0.1 to 12.5),4 (maximum 87.6 to 99.9),–,62 to 65 °C,–,5 (maximum *all dead) 100),–
